Experimental findings from the supplement of paper PMC8498969 are described below.

Some results are limits rather than exact numbers.

The test system of test [1] is HEK293. The test can be described thus: cytotoxicity IC50 (ATP content, uninfected cells); higher = less cytotoxic. The following applies: infection: none.
Test [2] has as its system HEK293. The experiment in a line: maximal inhibition of ZIKV NS1 production (% inhibition); higher = stronger antiviral effect. The protocol:
(§1)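 HEK293 cells in 1536-well plates were pre-treated with compound for 1 h, infected with ZIKV (MOI 1) for 24 h, and NS1 antigen (intra- plus extracellular) was measured by TR-FRET. Confirmation used 11-point 1:3 dilutions, and IC50 and maximal inhibition were fitted in GraphPad Prism.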

Test [3] has as its system HEK293. The test can be described thus: IC50 for inhibition of ZIKV NS1 production. The protocol: as §1

What is called IC50 is the concentration that gives 50% inhibition. `CC(=O)OC[C@H]1O[C@@H]([S-])[C@H](OC(C)=O)[C@@H](OC(C)=O)[C@@H]1OC(C)=O.CCP(CC)CC.[Au+]`: the “cytotoxicity IC50” value in the test on HEK293 [1] amounted to 3 µM. Further, the maximal inhibition in the test with HEK293 [2] came to 107. In the test with HEK293 [3], the IC50 is 3.5 µM.
For `C=CC(=O)N1CCc2ccc(-n3c(=O)ccc4cnc5ccc(-c6cnn(C)c6)cc5c43)cc21` the same measures were more than 100 µM, 105 and 13 µM.
In the case of `CCCCCCCCc1ccc(CCC(N)(CO)CO)cc1`, the “cytotoxicity IC50” value in the test with HEK293 [1] was more than 100 µM. The same molecule showed a maximal inhibition with HEK293 [2] of 102. In the test with HEK293 [3], the IC50 stood at 14 µM.
`Cc1ccccc1C(=O)c1ccc(Nc2ccc(Br)cc2N)cc1Cl`: the “cytotoxicity IC50” value in the test on HEK293 [1] was more than 100 µM. In the test on HEK293 [2], the maximal inhibition turned out to be 68. The molecule further registered an IC50 in the test on HEK293 [3] of 40 µM.
The matching figures for `O=C1C(SCCO)=C(SCCO)C(=O)c2ccccc21`: 5.3 µM, 97 and 5.5 µM.
For `COc1cc([C@@H]2c3cc4c(cc3[C@@H](O[C@@H]3O[C@@H]5CO[C@@H](C)O[C@H]5[C@H](O)[C@H]3O)[C@H]3COC(=O)[C@H]23)OCO4)cc(OC)c1O` the same measures were more than 100 µM, 102 and 2.2 µM.
On to `Cc1nc(N)nc(N)c1-c1ccc(Cl)c(Cl)c1`, for which, in the test on HEK293 [1], the “cytotoxicity IC50” value was determined as 1.5 µM. In the test on HEK293 [2], this molecule displayed a maximal inhibition of 102. In addition, in the test on HEK293 [3], the IC50 worked out at 2 µM.
Take `CC[C@H]1CN2CCc3cc(OC)c(OC)cc3[C@@H]2C[C@@H]1C[C@H]1NCCc2cc(OC)c(OC)cc21`: the “cytotoxicity IC50” value in the test with HEK293 [1] is more than 100 µM. Besides, the maximal inhibition in the test with HEK293 [2] was determined as 103. The same molecule showed an IC50 with HEK293 [3] of 0.11 µM.
For `C[C@@H](Oc1cc(-n2cnc3ccc(CN4CCN(C)CC4)cc32)sc1C(N)=O)c1ccccc1C(F)(F)F` the same measures were more than 100 µM, 98 and 14 µM.
Consider `c1ccc2c(-c3cnn4cc(-c5ccc(N6CCNCC6)cc5)cnc34)ccnc2c1`, for which the “cytotoxicity IC50” value with HEK293 [1] worked out at 80 µM. This molecule showed a maximal inhibition in the test with HEK293 [2] of 106. In the test with HEK293 [3], this molecule returned an IC50 of 6.1 µM.
As for `Cc1ccc([N+](=O)[O-])[c]2c1[O][Hg]2`, the “cytotoxicity IC50” value in the test with HEK293 [1] was determined as 9 µM. In the test on HEK293 [2], the maximal inhibition was 107. This molecule also yielded an IC50 in the test with HEK293 [3] of 14 µM.
For `C[C@H](NCc1ccc2c(c1)nc(NC(=O)c1ccc(-c3cn[nH]c3)s1)n2CCc1ccccc1)C(C)(C)C` the same measures were more than 100 µM, 98 and 17 µM.
